Laboratory results as given in PubChem BioAssay (NCI).
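These data come from cells grown in 96-well plates and exposed to compound for 48 hours at five concentrations. At the GI50, growth is halved. Definition used: TGI = concentration required for complete inhibition of growth.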

Tests used:
Experiment in all cases: NCI anticancer screen, dose series, 48 h
[1] = test system: HT29 colon
[2] = test system: OVCAR-4 ovarian
[3] = test system: U251 CNS
[4] = test system: UACC-257 melanoma
[5] = test system: LOX IMVI melanoma
[6] = test system: NCI-H522 lung
[7] = test system: OVCAR-5 ovarian
[8] = test system: SW-620 colon
[9] = test system: RXF 393 renal
[10] = test system: MDA-MB-231 breast
[11] = test system: SK-MEL-28 melanoma
[12] = test system: SR leukemia
[13] = test system: NCI-H226 lung
[14] = test system: K-562 leukemia
[15] = test system: EKVX NSCLC
[16] = test system: SF-268 CNS
[17] = test system: MOLT-4 leukemia
[18] = test system: SF-295 CNS
[19] = test system: UACC-62 melanoma
[20] = test system: CAKI-1 renal
[21] = test system: HCC-2998 colon
[22] = test system: HCT-116 colon
[23] = test system: COLO 205 colon
[24] = test system: BT-549 breast
[25] = test system: UO-31 renal
[26] = test system: SK-OV-3 ovarian
[27] = test system: SF-539 CNS
[28] = test system: PC-3 prostate
[29] = test system: HOP-92 NSCLC
[30] = test system: M14 melanoma
[31] = test system: A498 renal
[32] = test system: HL-60(TB) leukemia
[33] = test system: MDA-MB-435
[34] = test system: ACHN renal
[35] = test system: HS 578T breast
[36] = test system: DU-145 prostate
[37] = test system: A549 NSCLC
[38] = test system: NCI-H460 lung
[39] = test system: HCT-15 colon
[40] = test system: RPMI-8226 leukemia
[41] = test system: SK-MEL-5 melanoma
[42] = test system: NCI-H23 lung
[43] = test system: SK-MEL-2 melanoma
[44] = test system: SN12C renal
[45] = test system: OVCAR-3 ovarian
[46] = test system: CCRF-CEM leukemia
[47] = test system: MDA-MB-468 breast
[48] = test system: OVCAR-8 ovarian
[49] = test system: IGROV1 ovarian
[50] = test system: KM12 colon
[51] = test system: T-47D breast
[52] = test system: MCF7 breast
[53] = test system: TK-10 renal
[54] = test system: SNB-19 CNS
[55] = test system: MALME-3M melanoma
[56] = test system: HOP-62 NSCLC
[57] = test system: 786-0 renal
[58] = test system: SNB-75 CNS

`COc1ccc2nc(Nc3cccc(NC(=O)c4ccc(CN5CCN(C)CC5)c(C(F)(F)F)c4)c3)ccc2c1` was tested, and the GI50 [1] was 1320 nM, the TGI [1] was 5.08 µM and the GI50 [2] was 4.32 µM. For the same compound, the TGI [2] was 10 µM, the GI50 [3] was 3.77 µM and the TGI [3] was 8.84 µM. For the same compound, the GI50 [4] was 4.35 µM, the TGI [4] was 9.13 µM and the GI50 [5] was 1550 nM. It also gave a TGI [5] of 6.05 µM, a GI50 [6] of 4.88 µM and a TGI [6] of 10.3 µM. For the same compound, the GI50 [7] was 6.1 µM, the TGI [7] was 11.5 µM and the GI50 [8] was 5.89 µM. It also gave a TGI [8] of 11.6 µM, a GI50 [9] of 1750 nM and a TGI [9] of 6.96 µM. The GI50 [10] was 1840 nM, the TGI [10] was 6.49 µM and the GI50 [11] was 5.33 µM. It also gave a TGI [11] of 10.4 µM, a GI50 [12] of 1310 nM and a TGI [12] of 5.72 µM. The GI50 [13] was 4.6 µM, the TGI [13] was 9.77 µM and the GI50 [14] was 882 nM. For the same compound, the TGI [14] was 2590 nM, the GI50 [15] was 4.53 µM and the TGI [15] was 9.61 µM. The GI50 [16] was 5.2 µM, the TGI [16] was 12.5 µM and the GI50 [17] was 1630 nM. It also gave a TGI [17] of 6.75 µM, a GI50 [18] of 3.41 µM and a TGI [18] of 8.74 µM. For the same compound, the GI50 [19] was 6.45 µM, the TGI [19] was 11.9 µM and the GI50 [20] was 4.9 µM. The TGI [20] was 9.97 µM, the GI50 [21] was 5.25 µM and the TGI [21] was 10.7 µM. It also gave a GI50 [22] of 2410 nM, a TGI [22] of 7.74 µM and a GI50 [23] of 5.78 µM. The TGI [23] was 11.7 µM, the GI50 [24] was 5.58 µM and the TGI [24] was 10.9 µM. It also gave a GI50 [25] of 5.68 µM, a TGI [25] of 10.9 µM and a GI50 [26] of 5.99 µM. It also gave a TGI [26] of 11.4 µM, a GI50 [27] of 2080 nM and a TGI [27] of 7.59 µM. The GI50 [28] was 2900 nM, the TGI [28] was 8.68 µM and the GI50 [29] was 1360 nM. It also gave a TGI [29] of 6.15 µM, a GI50 [30] of 3.63 µM and a TGI [30] of 8.58 µM. The GI50 [31] was 7.36 µM, the TGI [31] was 13.2 µM and the GI50 [32] was 5.46 µM. For the same compound, the TGI [32] was 12.4 µM, the GI50 [33] was 5.73 µM and the TGI [33] was 11 µM. It also gave a GI50 [34] of 4.88 µM, a TGI [34] of 9.84 µM and a GI50 [35] of 4.14 µM. For the same compound, the TGI [35] was 15 µM, the GI50 [36] was 5.23 µM and the TGI [36] was 10.4 µM. The GI50 [37] was 4.36 µM, the TGI [37] was 9.66 µM and the GI50 [38] was 1880 nM. For the same compound, the TGI [38] was 7.21 µM, the GI50 [39] was 1180 nM and the TGI [39] was 4.45 µM. The GI50 [40] was 3.14 µM, the TGI [40] was 10.3 µM and the GI50 [41] was 5.1 µM. The TGI [41] was 10.2 µM, the GI50 [42] was 5.06 µM and the TGI [42] was 10.4 µM. The GI50 [43] was 5.98 µM, the TGI [43] was 11.4 µM and the GI50 [44] was 5.49 µM. It also gave a TGI [44] of 10.8 µM, a GI50 [45] of 5.89 µM and a TGI [45] of 11.2 µM. The GI50 [46] was 2150 nM, the TGI [46] was 7.65 µM and the GI50 [47] was 1560 nM. It also gave a TGI [47] of 7.09 µM, a GI50 [48] of 5.82 µM and a TGI [48] of 11.1 µM. It also gave a GI50 [49] of 6.22 µM, a TGI [49] of 12.3 µM and a GI50 [50] of 4.05 µM. It also gave a TGI [50] of 9.62 µM, a GI50 [51] of 4.12 µM and a TGI [51] of 9.96 µM. It also gave a GI50 [52] of 1370 nM, a TGI [52] of 6.12 µM and a GI50 [53] of 6.52 µM. It also gave a TGI [53] of 12.1 µM, a GI50 [54] of 6.14 µM and a TGI [54] of 11.5 µM. It also gave a GI50 [55] of 4.62 µM, a TGI [55] of 9.54 µM and a GI50 [56] of 6.36 µM. It also gave a TGI [56] of 12 µM, a GI50 [57] of 4.99 µM and a TGI [57] of 10.1 µM. The GI50 [58] was 684 nM and the TGI [58] was 6.45 µM.
